Measured values reported in patent US5846742A, “Selecting substances for treating glucocorticoid-mediated inflammation or immune diseases using Tripterygium wilfordii Hook F extracts” (Board of Regents, The University of Texas System, priority 1997, dated 1998).
≈ marks a conversion by molar mass, not a printed value. Where “and” joins values, the source holds several entries; their conditions need not be identical. Equal values may be shown once. Read-outs that look alike come from different tables or passages of the source.

Tests used:
T cells [1] = test: PHA-induced T cell proliferation, wilforonide (924); format: cell-based, human; details: for Mean cpm: control 42.0
Source text: The molecular groups responsible for the immune suppressive function of these compounds are unknown, however, the core structure of diterpenoids which may be related to their activity consists of an α-β-unsaturated 5 element lactone which can be identified by Kedde reagents. HPLC was used to fractionate the ethyl acetate extract of TwHF and the Kedde reagents were employed to trace the fractions. Then, the effect of selected fractions on the in vitro IL-2 production and [^3 H]-thymidine incorporation by PHA-activated T cells was determined. Fractions that inhibit these T cell functions were selected and the chromatographic pattern was identified with HPLC. One fraction was further purified with HPLC and crystallized repeatedly; a pure, crystallized compound was obtained and designated "924".
[^3 H]-thymidine was added for the last 14 hours of culture. Each concentration was run in quadruplicate (4 times) and the results for each concentration averaged to provide a mean. The mean cpm×10^3 values were combined and expressed as a percent of T cell inhibition.
or absence of the indicated concentrations of wilforonide for 3 days.
[^3 H]-Thymidine was added for the last 14 hours. Data are from 4
independent experiments.

T cells [2] = test: Antigen (SK)-induced T cell proliferation, wilforonide; format: cell-based; details: Homo sapiens, read-out: % inhibition of [3H]-thymidine incorporation
IL-2R = IL-2R expression by PHA-activated T cells, 924; format: cell-based, human
Solubility of 924 = format: physicochemical
Experimental: The dried woody skinned part of the root of TwHF was extracted with ethanol. The solution was concentrated at reduced pressure, and the residue was dissolved in ethyl acetate. This solution was passed through Al2 O3 with ethanol as an eluent. The eluate was evaporated and the residue chromatographed on silica gel with chloroform, chloroform-ether and ethyl acetate as successive eluent. The fractions eluted with chloroform-ether were purified on a preparative HPLC column packed with Nova-Pak C18 and equipped with a 214 detector. Methanol-water was the mobile phase. A fraction having positive reaction to Kedde reagent was collected and extracted with chloroform. The chloroform solution was evaporated to dryness and the residue crystallized in dichloromethane-hexane to yield 924.

[3] = Viability of PHA-stimulated T cells, 924; format: cell-based, human; details: t cells; 1,000 ng/ml; 0 ng/ml=22% of control; FIG. 20D; read-out: Cell viability, % of control
PHA-stimulated T cells = test: Viability of PHA-stimulated T cells, 924; format: cell-based, human
T cells [4] = test: Antigen (SK)-induced T cell proliferation, wilforonide; format: cell-based, human; details: for IC50: 120 h, read-out: ID50, antigen-induced T cell proliferation; for IC50 / inhibition at 0.01 µg/mL: 5 days
Experimental: The cells were allowed to culture for five days. The cultures were pulsed with [^3 H]-thymidine for the last 24 hours of culture. […] ID50 were calculated based on the regression formula by using the fx-3600 calculator. T cells cultured with SK or SK+IL-2 or SK+PMA gave cpm of 1.87×10^3, 4.99×10^3 and 6.67×10^3, respectively.
*T cells were cultured with or without SK(1 mg/ml) or SK plus IL2(50
μ/ml) or SK plus PMA(.2 ng/ml) in the presence or absence of indicated
concentrations of wilforonide for 5 days. Cultures were pulsed with
[^3 H]-thymidine for the last 24 hours. Data represent the mean of th
experiments. ID50 were calculated based on the regression formula by
using the fx3600 calculator. T cells cultured with SK or SL + IL2 or SK +

[5] = test system: IL-2 production by T cells; test: PHA-induced IL-2 production, wilforonide (924); format: cell-based, human; details: for IL-2, mean: control 21.395
Experimental: The effects of wilforonide on IL-2 production was also examined. […] Cell-free supernatants were diluted 1 to 80 and the IL-2 content assayed with CTLL-2 cells.

SMILES: C[C@]12CCC3=C(COC3=O)[C@@H]1CCC(=O)C2 (relative stereo) [Wilforonide, naphtho-[1,2-c] furan-3,7(1H,5H)-dione, 4,5a,6,8,9,9a-hexahydro-5a-methyl(5aR-trans)-[104331-87-5]]
- cpm, individual experiments 1-4 (T cells [1]; 10 ng/ml, PHA 0.5 μg/ml, 3 days): 23.5 cpm × 10^3 and 37.1 cpm × 10^3 and 57.5 cpm × 10^3 and 36.3 cpm × 10^3
- Mean cpm (T cells [1]; 10 ng/ml): 38.6 cpm × 10^3
- cpm, individual experiments 1-4 (T cells [1]; 50 ng/ml): 30.2 cpm × 10^3 and 35.3 cpm × 10^3 and 57.0 cpm × 10^3 and 44.8 cpm × 10^3
- Mean cpm (T cells [1]; 50 ng/ml): 41.8 cpm × 10^3
- cpm, individual experiments 1-4 (T cells [1]; 100 ng/ml): 13.0 cpm × 10^3 and 37.6 cpm × 10^3 and 55.2 cpm × 10^3 and 26.7 cpm × 10^3
- Mean cpm (T cells [1]; 100 ng/ml): 33.1 cpm × 10^3
- cpm, individual experiments 1-4 (T cells [1]; 200 ng/ml): 6.8 cpm × 10^3 and 33.9 cpm × 10^3 and 56.5 cpm × 10^3 and 26.4 cpm × 10^3
- Mean cpm (T cells [1]; 200 ng/ml): 30.9 cpm × 10^3
- cpm, individual experiments 1-4 (T cells [1]; 500 ng/ml): 0.3 cpm × 10^3 and 19.7 cpm × 10^3 and 30.9 cpm × 10^3 and 11.3 cpm × 10^3
- Mean cpm (T cells [1]; 500 ng/ml): 15.6 cpm × 10^3
- T cell proliferation (T cells [1]; 1,000 ng/ml, FIG. 20C): no cell proliferation was evident
- inhibition at 0.01 µg/mL (T cells [1]; Homo sapiens, T-cell, 72 h, 10 ng/ml, PHA 0.5 μg/ml, 3 days): 8.09%
- IC50 (T cells [1]; Homo sapiens, T-cell, 72 h, PHA 0.5 μg/ml, 3 days, read-out: ID50, PHA-induced T cell proliferation): 0.391 µg/mL (≈ 1.78 µM)
- inhibition at 0.001 µg/mL (T cells [1]; Homo sapiens, T-cell, 1 ng/ml, PHA, read-out: Degree of inhibition of T cell proliferation): 14.6%
- inhibition at 0.05 µg/mL (T cells [1]; Homo sapiens, T-cell, 50 ng/ml, PHA): 0.48%
- inhibition at 0.1 µg/mL (T cells [1]; Homo sapiens, T-cell, 100 ng/ml, PHA, read-out: % inhibition): 21.2%
- inhibition at 0.1 µg/mL (T cells [1]; Homo sapiens, T-cell, 100 ng/ml, PHA, read-out: Degree of inhibition of T cell proliferation): 54.2%
- inhibition at 0.2 µg/mL (T cells [1]; Homo sapiens, T-cell, 200 ng/ml, PHA): 26.4%
- inhibition at 0.5 µg/mL (T cells [1]; Homo sapiens, T-cell, 500 ng/ml, PHA): 62.9%
- inhibition at 0.05 µg/mL (T cells [2]; SK + IL-2, 50 ng/ml): 12.4%
- inhibition at 0.1 µg/mL (T cells [2]; SK + IL-2, 100 ng/ml): 14.5%
- inhibition at 1 µg/mL (T cells [2]; SK + IL-2, 1,000 ng/ml): 86.2%
- inhibition at 0.1 µg/mL (T cells [2]; SK + PMA, 100 ng/ml): 20.3%
- inhibition at 1 µg/mL (T cells [2]; SK + PMA, 1,000 ng/ml): 65.4%
- inhibition at 0.05 µg/mL (T cells [2]; SK, 50 ng/ml): 44.5%
- inhibition at 0.1 µg/mL (T cells [2]; SK, 100 ng/ml): 49.1%
- inhibition at 0.5 µg/mL (T cells [2]; SK, 500 ng/ml): 75.2%
- inhibition at 1 µg/mL (T cells [2]; SK, 1,000 ng/ml): 84.2%
- IL-2R expression (IL-2R; 500 ng/ml): did not affect the IL-2R expression
- IL-2R expression (IL-2R; PHA-activated T cells): no effect
- Solubility (Solubility of 924): soluble in ethanol, and ethanol and chloroform
- viability [3]: 35%
- Viability of PHA-stimulated T cells (PHA-stimulated T cells; 1 ng/ml up to 1000 ng/ml): did not affect the viability of PHA-stimulated T cells
- Cell viability (PHA-stimulated T cells; 1 to 500 ng/ml): did not differ significantly in terms of cell viability
- in vitro ID50/LD50 of T cell proliferation (PHA-stimulated T cells; t cells): more than 10
- IC50 (T cells [4]; Homo sapiens, T-cell, SK + IL-2 (50 u/ml)): 0.476 µg/mL
- IC50 (T cells [4]; Homo sapiens, T-cell, SK + PMA (0.2 ng/ml)): 0.613 µg/mL
- IC50 (T cells [4]; Homo sapiens, T-cell, SK): 0.127 µg/mL (≈ 0.577 µM)
- inhibition at 0.01 µg/mL (T cells [4]; Homo sapiens, T-cell, SK + IL-2, 10 ng/ml, read-out: % inhibition of [3H]-thymidine incorporation): 19.6%
- inhibition at 0.5 µg/mL (T cells [4]; Homo sapiens, T-cell, SK + IL-2, 500 ng/ml, read-out: % inhibition of [3H]-thymidine incorporation): 61.7%
- inhibition at 0.01 µg/mL (T cells [4]; Homo sapiens, T-cell, SK + PMA, 10 ng/ml, read-out: % inhibition of [3H]-thymidine incorporation): 22.7%
- inhibition at 0.05 µg/mL (T cells [4]; Homo sapiens, T-cell, SK + PMA, 50 ng/ml, read-out: % inhibition of [3H]-thymidine incorporation): 17.7%
- inhibition at 0.5 µg/mL (T cells [4]; Homo sapiens, T-cell, SK + PMA, 500 ng/ml, read-out: % inhibition of [3H]-thymidine incorporation): 53.3%
- inhibition at 0.01 µg/mL (T cells [4]; Homo sapiens, T-cell, SK, 10 ng/ml, read-out: % inhibition of [3H]-thymidine incorporation): 42.1%
- Inhibition of response to SK on adding IL2 or PMA (T cells [4]; low concentrations): partially overcome by adding IL2 or PMA
- IL-2, individual experiments 1-4 ([5]; 10 ng/ml, PHA 1 μg/ml, overnight): 1.628 unit/ml and 20.723 unit/ml and 27.374 unit/ml and 3.385 unit/ml
- IL-2, mean ([5]; 10 ng/ml): 13.278 unit/ml
- IL-2, individual experiments 1-4 ([5]; 50 ng/ml): 1.664 unit/ml and 26.983 unit/ml and 4.509 unit/ml and 6.042 unit/ml
- IL-2, mean ([5]; 50 ng/ml): 9.795 unit/ml
- IL-2, individual experiments 1-4 ([5]; 100 ng/ml): 0.800 unit/ml and 11.160 unit/ml and 10.170 unit/ml and 4.982 unit/ml
- IL-2, mean ([5]; 100 ng/ml): 6.803 unit/ml
- IL-2, individual experiments 1-4 ([5]; 200 ng/ml): 0.850 unit/ml and 10.301 unit/ml and 8.502 unit/ml and 1.773 unit/ml
- IL-2, mean ([5]; 200 ng/ml): 5.357 unit/ml
- inhibition at 0.01 µg/mL ([5]; Homo sapiens, T-cell, 10 ng/ml): 37.9%
- inhibition at 0.05 µg/mL ([5]; Homo sapiens, T-cell, 50 ng/ml): 54.2%
- inhibition at 0.1 µg/mL ([5]; Homo sapiens, T-cell, 100 ng/ml): 68.2%
- inhibition at 0.2 µg/mL ([5]; Homo sapiens, T-cell, 200 ng/ml): 75%
- IC50 ([5]; Homo sapiens, T-cell, PHA 1 μg/ml, overnight, read-out: ID50, PHA-induced IL-2 production): 0.0421 µg/mL (≈ 0.191 µM)
